Data on 1 compound can be found in patent publication US11141421B2, “Antitumor agent for biliary tract cancer and method for treating biliary tract cancer” (FUJIFILM Corporation, priority 2018, dated 2021).

The test system of one data set is bile duct cancer. The data set can be described thus: Administration of Compound A via intravenous injection to bile duct cancer patients; therapeutic effects judged by MRI image diagnosis. The data set is classed as in vivo, human. Also on record: key to Therapeutic effects of the present invention: CR (Complete Response): A state in which the tumor completely disappeared.; PR (Partial Response): A state in which a sum of the sizes of the tumors was reduced by 30% or more.; SD (Stable Disease): A state in which the size of the tumor did not change.; PD (Progressive Disease): A state in which a sum of the sizes of the tumors was increased by 20% or more and also, the size was increased by 5 mm or more even at an absolute value, or a new lesion appeared. As to the method:
This liquid pharmaceutical preparation was used in the subsequent therapy. Besides, the therapy was carried out at the University of Texas MD Anderson Cancer Center (hereinafter referred to as MDACC), and at Sarah Cannon Research Institute (hereinafter referred to as SCRI) in Denver, State of Colorado, U.S.A.
(§1) A medication cycle consisting of administration of Compound A via intravenous injection once a week from the 1st week to the 3rd week and cessation of medication in the 4th week was repeated to bile duct cancer patients Specifically, 28 days was set at one cycle, and on the 1st day, 8th day and 15th day, Compound A was administered to the patients. This cycle consisting of 28 days was repeated. A single dose of compound A was set from 40 mg/m^2 to 135 mg/m^2.
The therapeutic effects were judged according to the following criteria.
Evaluation targets were confirmed by performing image diagnosis using MRI (magnetic resonance imaging), and were then judged according to the following criteria:
CR (Complete Response): A state in which the tumor completely disappeared.
PR (Partial Response): A state in which a sum of the sizes of the tumors was reduced by 30% or more.
PD (Progressive Disease): A state in which a sum of the sizes of the tumors was increased by 20% or more and also, the size was increased by 5 mm or more even at an absolute value, or a new lesion appeared.

The nature of data set [1]: Side effects / drug associated AE in the clinical trial of Compound A. The data set is classed as in vivo, human. How it is done:
as §1
Bile duct cancer patient 6 is intrahepatic cholangiocarcinoma. […] Further, due to neutropenia, the dose was changed to 67.5 mg/m^2. Thereafter, SD could be maintained for 34 weeks or more.

Another data set deals with tumor. To be noted: orally administered to mice; cited from earlier work.

As to `Nc1ccn([C@@H]2S[C@H](CO)[C@@H](O)[C@@H]2F)c(=O)n1` [Compound A, 1-(2-deoxy-2-fluoro-4-thio-β-D-arabinofuranosyl)cytosine], the “Therapeutic effects of the present invention” value in the data set on bile duct cancer (bile duct cancer patient 1 (intrahepatic bile duct cancer), single dose 40 mg/m^2 iv, days 1, 8, 15 of 28-day cycle) was “PR (PR (Partial Response): A state in which a sum of the sizes of the tumors was reduced by 30% or more.)”; in the data set with bile duct cancer (bile duct cancer patient 2 (intrahepatic bile duct cancer), single dose 60 mg/m^2 iv), “PR (PR (Partial Response): A state in which a sum of the sizes of the tumors was reduced by 30% or more.)”; with bile duct cancer (bile duct cancer patient 3 (bile duct cholangiocarcinoma), initial dose 60 mg/m^2, changed to 90 mg/m^2), “SD”; in the data set on bile duct cancer (bile duct cancer patient 4, single dose 90 mg/m^2 iv), “PD (PD (Progressive Disease): A state in which a sum of the sizes of the tumors was increased by 20% or more and also, the size was increased by 5 mm or more even at an absolute value, or a new lesion appeared.)”; in the data set on bile duct cancer (bile duct cancer patient 5, single dose 90 mg/m^2 iv), “SD”; in the data set on bile duct cancer (bile duct cancer patient 6 (intrahepatic cholangiocarcinoma), single dose 90 mg/m^2 in Table 1 (text: 135, then 90, then 67.5 mg/m^2)) it was “SD”. In addition, the “Therapeutic effect after dose increase” value in the data set on bile duct cancer (bile duct cancer patient 1, single dose increased to 60 mg/m^2 or 90 mg/m^2) is reported as “PR (PR (Partial Response): A state in which a sum of the sizes of the tumors was reduced by 30% or more.)”. The “time for which SD could be maintained” value is no less than 32 weeks in the data set with bile duct cancer (bile duct cancer patient 3, initial dose 60 mg/m^2, changed to 90 mg/m^2) and no less than 34 weeks with bile duct cancer (bile duct cancer patient 6, after dose changes 135 to 90 to 67.5 mg/m^2). In addition, the “side effect leading to further dose change” value in data set [1] (bile duct cancer patient 6, dose 90 mg/m^2 (then changed to 67.5 mg/m^2)) is on record as “neutropenia”. For the same compound, the side effects observed result in data set [1] (bile duct cancer patient 6, initial dose 135 mg/m^2) is “hypotension and suspected bacteremia”. Further, the “most common drug associated AE among two or more patients” value in data set [1] (clinical trial, patients including bile duct cancer patients, 40 to 135 mg/m^2 iv) is “fever, nausea, chills, itch, irritating, dry skin, skin separation, and fatigue”. In addition, in the data set with tumor, the antitumor activity entry is “strong antitumor activity”.
